Blank lines part the entries; values can stand above or below the compound they belong to.
Legend:
[1] = molecular target: Serine/threonine-protein kinase 26 (Homo sapiens, UniProt Q9P289); test: Selectivity interaction (KinomeScan (DiscoverX)) EUB0001868a STK26; conditions: at 1 µM
[2] = molecular target: Macrophage colony-stimulating factor 1 receptor (Homo sapiens) (UniProt P07333); test: Selectivity interaction (KinomeScan (DiscoverX)) EUB0000607a CSF1R; conditions: at 10 µM
[3] = molecular target: T1, Interleukin-1 receptor-associated kinase 4 (Homo sapiens) (UniProt Q9NWZ3); test: Selectivity interaction (Upstate Kinase Profiler service (Millipore)) EUB0000056c IRAK4; conditions: at 1 µM
T1 sequence (whole entry): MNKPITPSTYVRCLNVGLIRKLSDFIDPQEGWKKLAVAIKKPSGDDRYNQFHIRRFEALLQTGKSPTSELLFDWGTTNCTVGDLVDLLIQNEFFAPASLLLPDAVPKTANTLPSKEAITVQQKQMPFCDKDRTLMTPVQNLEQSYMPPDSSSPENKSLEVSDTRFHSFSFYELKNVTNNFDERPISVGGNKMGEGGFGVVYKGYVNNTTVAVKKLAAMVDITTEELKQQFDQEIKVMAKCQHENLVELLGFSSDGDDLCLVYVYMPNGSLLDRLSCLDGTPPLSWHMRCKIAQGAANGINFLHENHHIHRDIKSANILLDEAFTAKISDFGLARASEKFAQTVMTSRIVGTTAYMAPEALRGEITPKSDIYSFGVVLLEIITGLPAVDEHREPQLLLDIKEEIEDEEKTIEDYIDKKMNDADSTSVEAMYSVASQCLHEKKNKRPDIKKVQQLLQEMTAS

[4] = molecular target: DNA-dependent protein kinase catalytic subunit (Homo sapiens) (UniProt P78527); test: Selectivity interaction (ActivX KiNativ screen (kinase selectivity in THP-1 cell lysates)) EUB0000639a PRKDC; format: subcellular; conditions: lysate, at 0.2 µM
[5] = molecular target: T2, Scaffold protein ILK (Homo sapiens) (UniProt Q13418); test: Selectivity interaction (ActivX KiNativ screen (kinase selectivity in THP-1 cell lysates)) EUB0000639a ILK; format: subcellular; conditions: lysate, at 0.04 µM
T2 sequence (whole entry): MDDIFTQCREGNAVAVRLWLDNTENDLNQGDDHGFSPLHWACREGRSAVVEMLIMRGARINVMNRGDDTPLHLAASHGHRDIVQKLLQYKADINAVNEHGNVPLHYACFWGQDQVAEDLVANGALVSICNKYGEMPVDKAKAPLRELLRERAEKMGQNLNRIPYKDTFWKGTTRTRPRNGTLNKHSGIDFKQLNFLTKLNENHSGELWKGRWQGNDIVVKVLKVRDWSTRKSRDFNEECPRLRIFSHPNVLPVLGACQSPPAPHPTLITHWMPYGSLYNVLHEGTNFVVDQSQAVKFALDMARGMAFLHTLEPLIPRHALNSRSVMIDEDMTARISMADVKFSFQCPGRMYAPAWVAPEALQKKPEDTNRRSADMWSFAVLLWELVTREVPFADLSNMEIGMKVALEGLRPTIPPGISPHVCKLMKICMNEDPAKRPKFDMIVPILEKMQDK

[6] = molecular target: Casein kinase II subunit alpha (Homo sapiens, UniProt P68400); test: Selectivity interaction (Kinase panel (DSF assay)) EUB0001559a CSNK2A1
Sequence of Casein kinase II subunit alpha (P68400 whole entry, looked up): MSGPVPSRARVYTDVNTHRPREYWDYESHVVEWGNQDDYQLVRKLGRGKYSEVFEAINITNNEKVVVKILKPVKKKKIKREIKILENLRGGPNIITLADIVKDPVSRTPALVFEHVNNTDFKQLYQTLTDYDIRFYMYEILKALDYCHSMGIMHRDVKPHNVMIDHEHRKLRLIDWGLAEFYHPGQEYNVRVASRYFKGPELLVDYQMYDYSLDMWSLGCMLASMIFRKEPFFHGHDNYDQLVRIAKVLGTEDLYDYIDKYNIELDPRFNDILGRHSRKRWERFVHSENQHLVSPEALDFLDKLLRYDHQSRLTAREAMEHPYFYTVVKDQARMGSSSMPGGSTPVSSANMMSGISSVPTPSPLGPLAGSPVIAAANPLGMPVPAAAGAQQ

[7] = molecular target: T3, Interleukin-1 receptor-associated kinase 3 (Homo sapiens) (UniProt Q9Y616); test: Selectivity interaction (KinomeScan (DiscoverX)) EUB0001049a IRAK3; conditions: at 1 µM
T3 sequence (whole entry): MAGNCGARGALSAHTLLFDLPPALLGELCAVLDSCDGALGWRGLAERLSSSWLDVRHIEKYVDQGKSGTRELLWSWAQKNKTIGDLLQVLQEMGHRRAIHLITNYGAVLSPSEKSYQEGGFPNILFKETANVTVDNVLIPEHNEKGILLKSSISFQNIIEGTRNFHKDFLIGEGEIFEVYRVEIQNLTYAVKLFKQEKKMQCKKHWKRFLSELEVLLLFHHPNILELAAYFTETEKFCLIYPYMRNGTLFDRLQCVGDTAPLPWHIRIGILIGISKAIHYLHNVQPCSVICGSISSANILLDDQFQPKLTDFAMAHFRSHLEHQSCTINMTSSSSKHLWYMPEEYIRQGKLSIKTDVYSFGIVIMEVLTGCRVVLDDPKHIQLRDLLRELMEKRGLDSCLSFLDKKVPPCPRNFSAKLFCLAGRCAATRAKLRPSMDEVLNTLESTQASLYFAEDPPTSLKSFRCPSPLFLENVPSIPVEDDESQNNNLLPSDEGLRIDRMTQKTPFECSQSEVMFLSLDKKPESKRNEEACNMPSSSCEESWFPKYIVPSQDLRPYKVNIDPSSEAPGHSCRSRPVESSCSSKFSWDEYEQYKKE

[8] = molecular target: Casein kinase II subunit alpha' (Homo sapiens) (UniProt P19784); test: Selectivity interaction (KinomeScan (DiscoverX)) EUB0000655a CSNK2A2; conditions: at 10 µM
Sequence of Casein kinase II subunit alpha' (Homo sapiens) (P19784 whole entry, looked up): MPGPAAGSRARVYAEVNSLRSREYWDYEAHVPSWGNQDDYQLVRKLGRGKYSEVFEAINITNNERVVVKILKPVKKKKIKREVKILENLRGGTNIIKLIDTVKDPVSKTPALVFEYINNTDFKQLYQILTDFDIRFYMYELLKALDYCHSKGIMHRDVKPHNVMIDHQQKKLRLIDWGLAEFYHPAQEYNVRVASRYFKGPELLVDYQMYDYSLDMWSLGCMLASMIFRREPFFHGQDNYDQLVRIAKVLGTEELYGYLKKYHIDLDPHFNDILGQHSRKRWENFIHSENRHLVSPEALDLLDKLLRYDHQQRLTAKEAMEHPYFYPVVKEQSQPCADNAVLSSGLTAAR

[9] = molecular target: T4, Serine/threonine-protein kinase Nek5 (Homo sapiens) (UniProt Q6P3R8); test: Selectivity interaction (KinomeScan (DiscoverX)) EUB0000045b NEK5
T4 sequence (whole entry): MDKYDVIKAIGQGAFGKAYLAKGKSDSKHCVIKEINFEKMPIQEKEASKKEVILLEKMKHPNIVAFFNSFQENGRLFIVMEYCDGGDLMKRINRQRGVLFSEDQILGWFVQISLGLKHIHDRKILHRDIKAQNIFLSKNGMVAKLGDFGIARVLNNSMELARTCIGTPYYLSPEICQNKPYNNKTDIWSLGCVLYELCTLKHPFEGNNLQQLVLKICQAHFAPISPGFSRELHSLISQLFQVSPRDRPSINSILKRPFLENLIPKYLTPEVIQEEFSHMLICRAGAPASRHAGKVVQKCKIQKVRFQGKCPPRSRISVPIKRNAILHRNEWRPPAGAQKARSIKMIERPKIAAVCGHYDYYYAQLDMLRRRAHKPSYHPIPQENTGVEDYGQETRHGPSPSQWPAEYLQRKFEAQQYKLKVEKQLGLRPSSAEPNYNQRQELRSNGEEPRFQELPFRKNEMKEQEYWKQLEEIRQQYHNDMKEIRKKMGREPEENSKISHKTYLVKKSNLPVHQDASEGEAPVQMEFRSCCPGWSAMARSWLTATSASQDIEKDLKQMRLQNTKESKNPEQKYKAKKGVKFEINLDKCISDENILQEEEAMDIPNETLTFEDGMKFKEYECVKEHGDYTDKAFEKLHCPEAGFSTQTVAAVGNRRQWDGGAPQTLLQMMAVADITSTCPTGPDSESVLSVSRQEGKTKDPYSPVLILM

Sequence of Macrophage colony-stimulating factor 1 receptor (Homo sapiens) (P07333 whole entry): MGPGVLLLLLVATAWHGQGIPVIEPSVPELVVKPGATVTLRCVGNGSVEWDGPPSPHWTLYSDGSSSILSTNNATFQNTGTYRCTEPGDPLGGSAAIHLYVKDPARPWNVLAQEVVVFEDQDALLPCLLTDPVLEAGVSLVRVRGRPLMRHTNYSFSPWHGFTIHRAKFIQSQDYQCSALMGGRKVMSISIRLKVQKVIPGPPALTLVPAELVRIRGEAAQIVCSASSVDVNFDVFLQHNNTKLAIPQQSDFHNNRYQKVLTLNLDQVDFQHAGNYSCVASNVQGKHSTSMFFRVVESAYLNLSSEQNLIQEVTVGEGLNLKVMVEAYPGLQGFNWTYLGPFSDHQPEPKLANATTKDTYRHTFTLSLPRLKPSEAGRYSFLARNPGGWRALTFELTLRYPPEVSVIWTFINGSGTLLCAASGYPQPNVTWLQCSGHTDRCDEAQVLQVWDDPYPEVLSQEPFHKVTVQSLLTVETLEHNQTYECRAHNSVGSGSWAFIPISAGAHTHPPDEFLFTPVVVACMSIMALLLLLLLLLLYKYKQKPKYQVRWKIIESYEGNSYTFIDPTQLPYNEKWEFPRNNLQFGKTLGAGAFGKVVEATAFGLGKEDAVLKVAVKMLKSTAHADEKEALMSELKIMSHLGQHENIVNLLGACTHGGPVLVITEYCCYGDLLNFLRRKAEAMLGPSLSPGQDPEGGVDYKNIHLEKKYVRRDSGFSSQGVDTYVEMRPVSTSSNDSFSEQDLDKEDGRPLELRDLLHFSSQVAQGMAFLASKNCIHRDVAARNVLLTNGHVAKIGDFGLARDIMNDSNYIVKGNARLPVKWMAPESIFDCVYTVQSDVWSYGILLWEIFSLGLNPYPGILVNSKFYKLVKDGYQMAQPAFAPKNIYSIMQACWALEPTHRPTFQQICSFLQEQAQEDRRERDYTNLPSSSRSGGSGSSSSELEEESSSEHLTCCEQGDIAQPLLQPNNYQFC
Sequence of Serine/threonine-protein kinase 26 (Q9P289 2-416 limits assumed): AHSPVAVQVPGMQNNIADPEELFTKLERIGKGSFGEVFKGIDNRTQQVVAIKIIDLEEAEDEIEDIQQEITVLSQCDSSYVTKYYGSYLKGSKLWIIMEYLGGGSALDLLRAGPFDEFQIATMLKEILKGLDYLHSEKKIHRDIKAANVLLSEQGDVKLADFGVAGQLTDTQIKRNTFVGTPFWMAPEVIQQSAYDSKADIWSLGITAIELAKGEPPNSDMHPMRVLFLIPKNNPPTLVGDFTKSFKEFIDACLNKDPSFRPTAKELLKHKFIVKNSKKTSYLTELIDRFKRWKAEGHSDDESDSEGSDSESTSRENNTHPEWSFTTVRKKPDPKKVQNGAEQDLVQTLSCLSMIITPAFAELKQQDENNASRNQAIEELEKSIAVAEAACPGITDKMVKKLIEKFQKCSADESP

SMILES: CNC(=O)Nc1ccc(-c2nc(N3CC4CCC(C3)O4)c3cnn(C4CCC5(CC4)OCCO5)c3n2)cc1
% of control [2]: 100%

SMILES: COc1cc(Nc2nc(C)cc(-c3cnn4nc(OC)ccc34)n2)cc(C(F)(F)F)c1
% of control [7]: 89%

SMILES: CN(C)CCOc1ccc(-c2nc(-c3ccncc3)c(-c3ccc4c(c3)CC/C4=N\O)[nH]2)cc1
% of control [8]: 74%

SMILES: C=CC(=O)Nc1cc(-n2c(=O)ccc3cnc4ccc(-c5ccc(NS(C)(=O)=O)cc5)cc4c32)ccc1C
% of control ([9]; at 1 µM): 100%
% of control ([9]; at 10 µM): 84%

Continued, values first:

% of control [1]: 42%
SMILES: Cc1cc(-c2ccnc(Nc3cnn(C)c3)n2)ccc1CNC(=O)N1CC(OC(C)C)C1

% of inhibition [3]: 13%
SMILES: Cc1ccc(-c2ccc3c(ccc4sc5c(c43)NC[C@@H](C)NC5=O)n2)cn1

% of inhibition [4]: -5.7%
% of inhibition [5]: -18.4%
SMILES: CC[C@@H]1[C@H](F)C(=O)N[C@@H]1COc1nccc2cc(C(N)=O)c(OC)cc12 [ZIMLOVISERTIB]

dTM [6]: -0.4 K
SMILES: CN(C(=O)c1cnn2cccnc12)c1cc2c(cc1N1CCOCC1)C(=O)N(C[C@@H](F)C(C)(C)O)C2

Source: ChEMBL document CHEMBL5465560, “Selectivity Literature for EUbOPEN Chemogenomic Library” (2024)
